Biological target: T1, human GPR119 (hGPR119) (Homo sapiens, UniProt Q8TDV5)
T1 construct: expressed in transfected cells
T1 sequence (Q8TDV5 1-335): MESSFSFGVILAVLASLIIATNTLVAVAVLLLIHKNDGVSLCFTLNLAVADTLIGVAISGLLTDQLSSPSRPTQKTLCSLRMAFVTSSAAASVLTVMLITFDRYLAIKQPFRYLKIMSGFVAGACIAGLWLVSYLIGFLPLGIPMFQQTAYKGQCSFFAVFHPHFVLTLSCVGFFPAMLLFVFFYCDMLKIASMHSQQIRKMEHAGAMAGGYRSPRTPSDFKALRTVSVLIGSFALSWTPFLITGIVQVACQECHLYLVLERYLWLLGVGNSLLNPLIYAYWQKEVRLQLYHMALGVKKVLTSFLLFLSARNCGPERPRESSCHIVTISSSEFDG
Assay: cAMP accumulation assay (cAMP Gs dynamic HTRF kit)
Format: cell-based
Conditions: CHO-K1 cells stably expressing hGPR119, 4-parameter fit; for Emax: 1 h, % activity normalized to Max/Min controls; for EC50: cAMP accumulation
Procedure, shortened: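 CHO-K1 cells stably expressing hGPR119, used as assay-ready frozen stocks at ~10,000 cells/well, exposed to compound dose-response in stimulation buffer with Tween 80 for 60 min at 37° C. cAMP read by HTRF (665/620 nm ratio), normalised to Max/Min controls; EC50 and Max activity from 4-parameter fit.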

`O=C(Cc1ccc(OCCCC2CCN(c3ncc(CO)cn3)CC2)cc1F)N1CC(CNC[C@H](O)[C@@H](O)[C@H](O)[C@H](O)CO)C1` [Example 93, 2-[2-fluoro-4-[3-[1-[5-(hydroxymethyl)pyrimidin-2-yl]-4-piperidyl]propoxy]phenyl]-1-[3-[[[(2S,3R,4R,5R)-2,3,4,5,6-pentahydroxyhexyl]amino]methyl]azetidin-1-yl]ethanone] was tested, and the Emax was 50 to 100% and the EC50 was 1000 to 10000 nM.
`COCc1cnc(N2CCC(CCCOc3cc(F)c(CC(=O)N4CC(CNC[C@H](O)[C@@H](O)[C@H](O)[C@H](O)CO)C4)c(F)c3)CC2)nc1` [Example 94, 2-(2,6-difluoro-4-(3-(1-(5-(methoxymethyl)pyrimidin-2-yl)piperidin-4-yl)propoxy)phenyl)-1-(3-((((2S,3R,4R,5R)-2,3,4,5,6-pentahydroxyhexyl)amino)methyl)azetidin-1-yl)ethan-1-one] showed an Emax of 100 to 130% and an EC50 of 100 to 1000 nM.
`COCc1cnc(N2CCC([C@H]3C[C@H]3COCc3ccc(CC(=O)N4CC(CNC[C@H](O)[C@@H](O)[C@H](O)[C@H](O)CO)C4)c(F)c3)CC2)nc1` [Example 96, 2-[2-fluoro-4-[[(1R,2R)-2-[1-[5-(methoxymethyl)pyrimidin-2-yl]-4-piperidyl]cyclopropyl]methoxymethyl]phenyl]-1-[3-[[[(2S,3R,4R,5R)-2,3,4,5,6-pentahydroxyhexyl]amino]methyl]azetidin-1-yl]ethanone] showed an Emax of 100 to 130% and an EC50 of 100 to 1000 nM.
`O=C(Cc1ccc(OCCCC2CCN(c3ncc(Cl)cn3)CC2)cc1F)N1CC[C@@H](CNC[C@H](O)[C@@H](O)[C@H](O)[C@H](O)CO)C1` [Example 98, 2-[4-[3-[1-(5-chloropyrimidin-2-yl)-4-piperidyl]propoxy]-2-fluoro-phenyl]-1-[(3S)-3-[[[(2S,3R,4R,5R)-2,3,4,5,6-pentahydroxyhexyl]amino]methyl]pyrrolidin-1-yl]ethanone] showed an Emax of 100 to 130% and an EC50 of no more than 100 nM.
With `O=C(Cc1ccc(OCCCC2CCN(c3ncc(Cl)cn3)CC2)cc1F)N1CC[C@@H](CNCC(O)(CO)CO)C1` [Example 99, 2-[4-[3-[1-(5-chloropyrimidin-2-yl)-4-piperidyl]propoxy]-2-fluoro-phenyl]-1-[(3S)-3-[[[2,3-dihydroxy-2-(hydroxymethyl)propyl]amino]methyl]pyrrolidin-1-yl]ethanone] the Emax was no less than 130% and the EC50 was no more than 100 nM.
In the case of `O=C(Cc1ccc(OCCCC2CCN(c3ncc(Cl)cn3)CC2)cc1F)N1CC[C@H](CNC[C@H](O)[C@@H](O)[C@H](O)[C@H](O)CO)C1` [Example 100, 2-[4-[3-[1-(5-chloropyrimidin-2-yl)-4-piperidyl]propoxy]-2-fluoro-phenyl]-1-[(3R)-3-[[[(2S,3R,4R,5R)-2,3,4,5,6-pentahydroxyhexyl]amino]methyl]pyrrolidin-1-yl]ethanone], the Emax is reported as 100 to 130% and the EC50 is reported as no more than 100 nM.
For `O=C(Cc1ccc(OCCCC2CCN(c3ncc(Cl)cn3)CC2)cc1F)N1CC[C@H](CNCC(O)(CO)CO)C1` [Example 101, 2-[4-[3-[1-(5-chloropyrimidin-2-yl)-4-piperidyl]propoxy]-2-fluoro-phenyl]-1-[(3R)-3-[[[2,3-dihydroxy-2-(hydroxymethyl)propyl]amino]methyl]pyrrolidin-1-yl]ethanone], the Emax was 100 to 130% and the EC50 was no more than 100 nM.
Work on `O=C(NC(CO)(CO)CO)[C@@H]1CCN(C(=O)Cc2ccc(OCCCC3CCN(c4ncc(Cl)cn4)CC3)cc2F)C1` [Example 102, (3R)-1-[2-[4-[3-[1-(5-chloropyrimidin-2-yl)-4-piperidyl]propoxy]-2-fluoro-phenyl]acetyl]-N-[2-hydroxy-1,1-bis(hydroxymethyl)ethyl]pyrrolidine-3-carboxamide] yielded an Emax of 100 to 130% and an EC50 of no more than 100 nM.
In the case of `O=C(NC(CO)(CO)CO)[C@H]1CCN(C(=O)Cc2ccc(OCCCC3CCN(c4ncc(Cl)cn4)CC3)cc2F)C1` [Example 103, (3S)-1-[2-[4-[3-[1-(5-chloropyrimidin-2-yl)-4-piperidyl]propoxy]-2-fluoro-phenyl]acetyl]-N-[2-hydroxy-1,1-bis(hydroxymethyl)ethyl]pyrrolidine-3-carboxamide], the Emax is reported as 100 to 130% and the EC50 is reported as no more than 100 nM.
With `O=C(Cc1ccc(OCCC2CC3(CCN(c4ncc(Cl)cn4)CC3)C2)cc1F)N1CC(CNC[C@H](O)[C@@H](O)[C@H](O)[C@H](O)CO)C1` [Example 104, 2-[4-[2-[7-(5-chloropyrimidin-2-yl)-7-azaspiro[3.5]nonan-2-yl]ethoxy]-2-fluoro-phenyl]-1-[3-[[[(2S,3R,4R,5R)-2,3,4,5,6-pentahydroxyhexyl]amino]methyl]azetidin-1-yl]ethanone] the Emax was 100 to 130% and the EC50 was 100 to 1000 nM.
Compound `O=C(Cc1ccc(OCCCC2CC3(CCN(c4ncc(Cl)cn4)CC3)C2)cc1F)N1CC(CNC[C@H](O)[C@@H](O)[C@H](O)[C@H](O)CO)C1` [Example 105, 2-[4-[3-[7-(5-chloropyrimidin-2-yl)-7-azaspiro[3.5]nonan-2-yl]propoxy]-2-fluoro-phenyl]-1-[3-[[[(2S,3R,4R,5R)-2,3,4,5,6-pentahydroxyhexyl]amino]methyl]azetidin-1-yl]ethanone] has an Emax of 100 to 130% and an EC50 of no more than 100 nM.
`O=C(Cc1ccc(OCCCCC2CC3(CCN(c4ncc(Cl)cn4)CC3)C2)cc1F)N1CC(CNC[C@H](O)[C@@H](O)[C@H](O)[C@H](O)CO)C1` [Example 106, 2-[4-[4-[7-(5-chloropyrimidin-2-yl)-7-azaspiro[3.5]nonan-2-yl]butoxy]-2-fluoro-phenyl]-1-[3-[[[(2S,3R,4R,5R)-2,3,4,5,6-pentahydroxyhexyl]amino]methyl]azetidin-1-yl]ethanone] showed an Emax of 100 to 130% and an EC50 of 100 to 1000 nM.
Compound `O=C(Cc1ccc(COCC2CC3(CCN(c4ncc(Cl)cn4)CC3)C2)cc1F)N1CC(CNC[C@H](O)[C@@H](O)[C@H](O)[C@H](O)CO)C1` [Example 107] has an Emax of 100 to 130% and an EC50 of 1000 to 10000 nM.
With `CCOc1cnc(N2CCC(CCCOc3ccc(CC(=O)N4CC(CC(=O)NCC(O)(CO)CO)C4)c(F)c3)CC2)nc1` [Example 108, N-[2,3-dihydroxy-2-(hydroxymethyl)propyl]-2-[1-[2-[4-[3-[1-(5-ethoxypyrimidin-2-yl)-4-piperidyl]propoxy]-2-fluoro-phenyl]acetyl]azetidin-3-yl]acetamide] the Emax was 100 to 130% and the EC50 was no more than 100 nM.
In the case of `CC1(CCCCOc2ccc(CC(=O)N3CC(CNC[C@H](O)[C@@H](O)[C@H](O)[C@H](O)CO)C3)c(F)c2)CCN(c2ncc(Cl)cn2)CC1` [Example 109, 2-[4-[4-[1-(5-chloropyrimidin-2-yl)-4-methyl-4-piperidyl]butoxy]-2-fluoro-phenyl]-1-[3-[[[(2S,3R,4R,5R)-2,3,4,5,6-pentahydroxyhexyl]amino]methyl]azetidin-1-yl]ethanone], the Emax is reported as 100 to 130% and the EC50 is reported as 100 to 1000 nM.
`O=C(Cc1ccc(OCCC2CC23CCN(c2ncc(Cl)cn2)CC3)cc1F)N1CC(CNC[C@H](O)[C@@H](O)[C@H](O)[C@H](O)CO)C1` (stereo partly drawn) [Example 110, 2-[4-[2-[6-(5-chloropyrimidin-2-yl)-6-azaspiro[2.5]octan-2-yl]ethoxy]-2-fluoro-phenyl]-1-[3-[[[(2S,3R,4R,5R)-2,3,4,5,6-pentahydroxyhexyl]amino]methyl]azetidin-1-yl]ethanone] showed an Emax of 100 to 130% and an EC50 of 100 to 1000 nM.
For `O=C(Cc1ccc(COCC2CC23CCN(c2ncc(Cl)cn2)CC3)cc1F)N1CC(CNC[C@H](O)[C@@H](O)[C@H](O)[C@H](O)CO)C1` (stereo partly drawn) [Example 111, 2-[4-[[6-(5-chloropyrimidin-2-yl)-6-azaspiro[2.5]octan-2-yl]methoxymethyl]-2-fluoro-phenyl]-1-[3-[[[(2S,3R,4R,5R)-2,3,4,5,6-pentahydroxyhexyl]amino]methyl]azetidin-1-yl]ethanone], the Emax was 50 to 100% and the EC50 was 1000 to 10000 nM.
`CC(C)OC(=O)N1CCC(CCCOc2ccc(CC(=O)N3CC(CNC[C@H](O)[C@@H](O)[C@H](O)[C@H](O)CO)C3)c(F)c2)CC1` [Example 112, isopropyl 4-[3-[3-fluoro-4-[2-oxo-2-[3-[[[(2S,3R,4R,5R)-2,3,4,5,6-pentahydroxyhexyl]amino]methyl]azetidin-1-yl]ethyl]phenoxy]propyl] piperidine-1-carboxylate] showed an Emax of 100 to 130% and an EC50 of 100 to 1000 nM.
`O=C(Cc1ccc(OCCC[C@@H]2[C@H]3CN(c4ncc(Cl)cn4)C[C@@H]23)cc1F)N1CC(CNC[C@H](O)[C@@H](O)[C@H](O)[C@H](O)CO)C1` [Example 113, 2-[4-[3-[(1R,5S)-3-(5-chloropyrimidin-2-yl)-3-azabicyclo[3.1.0]hexan-6-yl]propoxy]-2-fluoro-phenyl]-1-[3-[[[(2S,3R,4R,5R)-2,3,4,5,6-pentahydroxyhexyl]amino]methyl]azetidin-1-yl]ethanone] showed an Emax of 100 to 130% and an EC50 of 100 to 1000 nM.
With `CCOc1cnc(N2CCC(CCCOc3cc(F)c(CC(=O)N4CC(CNC[C@H](O)[C@@H](O)[C@H](O)[C@H](O)CO)C4)c(F)c3)CC2)nc1` [Example 114, 2-[4-[3-[1-(5-ethoxypyrimidin-2-yl)-4-piperidyl]propoxy]-2,6-difluoro-phenyl]-1-[3-[[[(2S,3R,4R,5R)-2,3,4,5,6-pentahydroxyhexyl]amino]methyl]azetidin-1-yl]ethanone] the Emax was 100 to 130% and the EC50 was no more than 100 nM.

Source: US20230061736A1, “GPR119 AGONISTS” (Kallyope, Inc., priority 2019, published 2023)
